Reference: patent US9950048B2, “Immunogenic epitopes for immunotherapy” (immatics biotechnologies GmbH, priority 2007, dated 2018)
Ends that are not written are not given here.

Molecular target: HLA-A*0201 (Homo sapiens, UniProt P04439, D140Y/D185E/D98H/E176V/E277Q/G131W/G231S/I119V/I121R/I166T/I218V/L300P/L318F/N151K/N90K/P208A/P217A/Q86G/Q94H/R138H/R169H/T345S)
Test: HLA-A*0201 binding assay, ELISA EpI Kit (Example 4)
Conditions: for binding affinity to HLA-A*0201 (KD), in words: FIG. 4, lower KD = higher affinity
Method: FIG. 4 depicts binding affinities of selected peptides to HLA-A*0201 as measured by EpI ELISA according to Sylvester-Hvid, C, et al., 2002, Tissue Antigens, 59, 251-258). The analysis was limited to peptides known to be MHC class I binding peptides. Affinities of HLA-DR binding peptides cannot be measured with this assay.
The HLA binding assay was performed using the ELISA EpI Kit (obtained from Sceren Buus, Institute of Medical Microbiology and Immunology at the University of Copenhagen, Denmark) according to Sylvester-Hvid (Sylvester-Hvid, at al., 2002, Tissue Antigens, 59, 251-258) and the ELISA EpI Kit manual by the manufacturer.
Peptides were dissolved in DMSO+0.5% TFA (Merck, Darmstadt, Germany) at a concentration of 10 mg/ml. The highest peptide working solution used in this assay was 200 μM, therefore the stock solution was diluted 1:50 in a peptide-dilution buffer (PBS with 0.1% Lutrol-F68 and 10 mg/1 Phenol red) to a final volume of 100 μl. A serial five-fold dilution was performed with peptide-dilution buffer.
According to the manual, a 2-fold concentrated HLA-A*0201 solution was prepared by mixing 3×pH buffer (pH 6.6), Lutrol-F68, human β2m, recombinant HLA-A*0201 (all included in the ELISA EpI Kit) with PBS.
For the refolding process, 15 μl of peptide serial dilutions and 15 μl of the 2-fold concentrated MHC mix were mixed in 96-well plates (Nunc, Rochester, N.Y., USA) and incubated at 18° C. for 48 hours.
Maxisorp plates (Nunc, Rochester, N.Y.) were coated with 5 μg/ml w6/32 antibody in coating buffer (pH 9.6), incubated for 24 h at 4° C. and blocked with 5% skim milk powder (Merck, Darmstadt, Germany) in PBS over night at 4° C.
MHC complex standard (ELISA EpI Kit) was diluted with 2% skim milk powder in PBS (SMP/PBS) to a concentration of 10 nM. A serial 3.16-fold dilution was prepared and transferred to the coated and blocked Maxisorp plate. […] Plates were read at OD450 nm using the VERSAmax ELISA-Reader (Molecular Devices, Sunnyvale, Calif., USA). […]

binding affinity to HLA-A*0201 (KD), in words	fold lower KD value compared with the majority of peptides (FIG. 4) [fold]	Sequence
slightly higher binding affinity	–	ILAPVILYI [NOX-001]
strongest binder	100	ALFVRLLALA [TGFBI-001]
